This note sets out measurements from US11447487B2, “Spiroheptanyl hydantoins as rock inhibitors” (BRISTOL-MYERS SQUIBB COMPANY, priority 2017, dated 2022).

Chain of ROCK2 (O75116 whole entry, species assumed): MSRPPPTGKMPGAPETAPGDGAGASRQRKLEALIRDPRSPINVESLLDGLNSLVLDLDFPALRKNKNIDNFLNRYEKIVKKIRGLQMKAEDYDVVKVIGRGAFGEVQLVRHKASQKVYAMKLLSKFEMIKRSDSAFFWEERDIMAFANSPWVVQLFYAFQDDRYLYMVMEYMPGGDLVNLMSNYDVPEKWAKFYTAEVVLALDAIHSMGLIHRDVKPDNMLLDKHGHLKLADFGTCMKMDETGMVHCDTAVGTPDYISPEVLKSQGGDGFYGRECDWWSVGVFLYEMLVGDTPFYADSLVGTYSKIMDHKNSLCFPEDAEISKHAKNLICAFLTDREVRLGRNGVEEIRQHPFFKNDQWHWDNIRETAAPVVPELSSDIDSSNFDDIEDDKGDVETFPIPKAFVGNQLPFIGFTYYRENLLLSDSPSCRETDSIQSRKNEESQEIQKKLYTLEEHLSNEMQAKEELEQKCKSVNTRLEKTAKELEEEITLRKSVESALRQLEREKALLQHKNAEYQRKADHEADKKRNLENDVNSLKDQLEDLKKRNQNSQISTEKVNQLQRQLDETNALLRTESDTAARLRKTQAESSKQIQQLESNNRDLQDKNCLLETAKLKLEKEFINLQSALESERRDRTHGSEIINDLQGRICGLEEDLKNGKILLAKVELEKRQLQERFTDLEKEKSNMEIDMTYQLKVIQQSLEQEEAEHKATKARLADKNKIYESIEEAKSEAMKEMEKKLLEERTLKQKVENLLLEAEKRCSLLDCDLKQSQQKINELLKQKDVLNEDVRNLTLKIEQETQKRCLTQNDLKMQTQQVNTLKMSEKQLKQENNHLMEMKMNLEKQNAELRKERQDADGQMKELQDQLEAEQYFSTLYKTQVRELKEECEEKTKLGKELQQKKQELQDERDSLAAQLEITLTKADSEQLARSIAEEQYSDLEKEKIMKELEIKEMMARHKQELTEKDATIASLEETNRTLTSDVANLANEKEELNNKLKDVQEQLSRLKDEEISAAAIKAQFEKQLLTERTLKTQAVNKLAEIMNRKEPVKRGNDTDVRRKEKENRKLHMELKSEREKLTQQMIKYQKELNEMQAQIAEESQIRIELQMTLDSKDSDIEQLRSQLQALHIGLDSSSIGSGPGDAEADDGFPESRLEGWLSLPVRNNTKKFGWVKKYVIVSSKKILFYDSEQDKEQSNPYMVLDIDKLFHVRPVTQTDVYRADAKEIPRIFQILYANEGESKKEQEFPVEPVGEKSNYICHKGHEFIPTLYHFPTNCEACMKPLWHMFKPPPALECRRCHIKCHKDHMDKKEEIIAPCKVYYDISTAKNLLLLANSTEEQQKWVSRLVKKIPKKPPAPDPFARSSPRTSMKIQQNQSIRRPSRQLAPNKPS

The target in this assay is ROCK2 (Homo sapiens (Human), UniProt O75116). The experiment in a line: ROCK assay (Caliper LABCHIP peptide phosphorylation). It is filed as biochemical. The conditions noted are these: 5 μM ATP, 1.5 μM peptide substrate. On the procedure:
The effectiveness of compounds of the present invention as ROCK inhibitors can be determined in a 30 μL assay containing 20 mM HEPES, pH 7.5, 20 mM MgCl2, 0.015% Brij-35, 4 mM DTT, 5 μM ATP and 1.5 μM peptide substrate (FITC-AHA-AKRRRLSSLRA-OH) (SEQ ID No. 1). Compounds were dissolved in DMSO so that the final concentration of DMSO was <2%, and the reaction was initiated with Rho kinase variants. After incubation, the reaction was terminated by the addition of EDTA and the phosphorylated and non-phosphorylated peptides separated using a LABCHIP® 3000 Reader (Caliper Life Sciences). […] Compounds were tested in dose-response format, and the inhibition of kinase activity was calculated at each concentration of compound. The inhibition data were fit using a curve-fitting program to determine the IC50; i.e., the concentration of compound required to inhibit 50% of kinase activity. Representative Examples were tested in the ROCK assay described above and found having ROCK inhibitory activity. A range of ROCK inhibitory activity (IC50 values) of ≤50 μM (50000 nM) was observed. Table A below lists the ROCK IC50 values measured for the following examples.
For orientation: IC50 means the point on the concentration scale where inhibition reaches its midpoint. The low end stands for greater potency in that assay, the high end for weaker potency in that assay. Consider `NC(=O)c1cccnc1O[C@H]1C[C@]2(C1)C[C@H](N1C(=O)NC(CC(C(F)(F)F)C(F)(F)F)C1=O)C2` (single isomer, unassigned) [Example 47], for which inhibition was half-maximal at 50 nM (IC50). In other words, the double-digit nanomolar range.
In turn, `CCC(CC)CC1NC(=O)N([C@H]2C[C@@]3(C[C@H](Oc4ncccc4C(N)=O)C3)C2)C1=O` (single isomer, unassigned) [Example 48, 2-{[(αR)-6-[4-(2-ethylbutyl)-2,5-dioxoimidazolidin-1-yl]spiro[3.3]-heptan-2-yl]oxy}-pyridine-3-carbox-amide] displayed an IC50 of 56 nM.
For `NC(=O)c1cccnc1O[C@H]1C[C@]2(C1)C[C@H](N1C(=O)NC(CCOCC(F)(F)F)C1=O)C2` (single isomer, unassigned) [Example 50, 2-{[(αR)-6-{2,5-dioxo-4-[2-(2,2,2-trifluoroethoxy)-ethyl]imidazolidin-3-yl}spiro[3.3]-heptan-2-yl]oxy}-pyridine-3-carbox-amide] the value was 62 nM; for `NC(=O)c1cccnc1O[C@H]1C[C@]2(C1)C[C@H](N1C(=O)NC(CC3CCCC3)C1=O)C2` (single isomer, unassigned) [Example 52], 160 nM.
The compound `NC(=O)c1cccnc1O[C@H]1C[C@]2(C1)C[C@H](N1C(=O)NC(CCC3CCCCCC3)C1=O)C2` (single isomer, unassigned) [Example 53, 2-{[(αR)-6-[4-(2-cycloheptylethyl)-2,5-dioxoimidazol-idin-1-yl]spiro-[3.3]-heptan-2-yl]-oxy}pyridine-3-carboxamide] registered an IC50 of 171 nM.
For `NC(=O)c1cccnc1O[C@H]1C[C@]2(C1)C[C@H](N1C(=O)NC(CC3CCCO3)C1=O)C2` (single isomer, unassigned) [Example 55] the value was 212 nM; for `NC(=O)c1cccnc1O[C@H]1C[C@]2(C1)C[C@H](N1C(=O)NC(CC(C(F)(F)F)C(F)(F)F)C1=O)C2` (single isomer, unassigned) [Example 56, 2-{[(αR)-6-{2,5-dioxo-4-[3,3,3-trifluoro-2-(trifluoromethyl)-propyl]imidazol-idin-1-yl}spiro-[3.3]heptan-2-yl]-oxy}pyridine-3-carboxamide], 256 nM; for `NC(=O)c1cccnc1O[C@H]1C[C@]2(C1)C[C@H](N1C(=O)NC(CCOC(F)(F)F)C1=O)C2` (single isomer, unassigned) [Example 57, 2-{[(αR)-6-{2,5-dioxo-4-[2-(tri-fluoromethoxy)-ethyl]imidazolidin-1-yl}spiro[3.3]-heptan-2-yl]oxy}-pyridine-3-carbox-amide], 259 nM.
In turn, `NC(=O)c1cccnc1O[C@H]1C[C@]2(C1)C[C@H](N1C(=O)NC(CCOC(F)(F)F)C1=O)C2` (single isomer, unassigned) [Example 59, 2-{[(αR)-6-{2,5-dioxo-4-[2-(trifluoromethoxy)-ethyl]imidazolidin-1-yl}spiro[3.3]-heptan-2-yl]oxy}-pyridine-3-carbox-amide] yielded a half-inhibitory concentration (IC50) of 303 nM.
For `NC(=O)c1cccnc1O[C@H]1C[C@]2(C1)C[C@H](N1C(=O)NC(CCCC(F)(F)F)C1=O)C2` (single isomer, unassigned) [Example 60, 2-{[(αR)-6-[2,5-dioxo-4-(4,4,4-trifluorobutyl)-imidazolidin-1-yl]-spiro[3.3]heptan-2-yl]oxy}pyridine-3-carboxamide] the value was 311 nM; for `NC(=O)c1cccnc1O[C@H]1C[C@]2(C1)C[C@H](N1C(=O)NC(CCOCC(F)(F)F)C1=O)C2` (single isomer, unassigned) [Example 61], 378 nM.
With `NC(=O)c1cccnc1O[C@H]1C[C@]2(C1)C[C@H](N1C(=O)NC(CC3CCCO3)C1=O)C2` (single isomer, unassigned) [Example 64, 2-{[(αR)-6-{2,5-dioxo-4-[(oxolan-2-yl)methyl]-imidazolidin-1-yl}-spiro[3.3]heptan-2-yl]oxy}pyridine-3-carboxamide], the IC50 was found to be 802 nM. Against the preceding compound, the IC50 is about 2.1-fold higher.
In the case of `[H][C@]1(Oc2ncccc2C(N)=O)C[C@]2(C[C@@H](N3C(=O)N[C@@H](CC(C)C)C3=O)C2)C1` (stereo partly shown) [Example 1], the IC50 worked out at 8 nM.
On to `NC(=O)c1cccnc1OC1CC2(C1)CC(N1C(=O)CN(c3ccccc3)C1=O)C2` (stereo not shown) [Example 3, 2-{[6-(2,5-dioxo-3-phenylimidazol-idin-1-yl)spiro-[3.3]heptan-2-yl]-oxy}pyridine-3-carboxamide], for which it took 9 nM to reach half-maximal inhibition (IC50).
Take `CC(C)(C)C1NC(=O)N([C@H]2C[C@@]3(C[C@H](Oc4ncccc4C(N)=O)C3)C2)C1=O` (stereo partly shown) [Example 7, 2-{[(αR)-6-(4-tert-butyl-2,5-dioxo-imidazolidin-1-yl)spiro[3.3]-heptan-2-yl]oxy}-pyridine-3-carbox-amide]: the midpoint of inhibition, the IC50, lay at 129 nM.
For `NC(=O)c1cccnc1O[C@H]1C[C@]2(C1)C[C@H](N1C(=O)NC3(CCCC3)C1=O)C2` (stereo partly shown) [Example 8, 2-{[(αR)-6-{2,4-dioxo-1,3-diaza-spiro[4.4]nonan-3-yl}spiro[3.3]-heptan-2-yl]oxy}-pyridme-3-carbox-amide] the value was 190 nM.
For `CC(C)(C)OCC1NC(=O)N([C@H]2C[C@@]3(C[C@H](Oc4ncccc4C(N)=O)C3)C2)C1=O` (stereo partly shown) [Example 9, 2-{[(αR)-6-(4-tert-butoxymethyl-2,5-dioxoimidazolidin-1-yl)spiro[3.3]-heptan-2-yl]oxy}-pyridine-3-carbox-amide] the value was 219 nM.
As to `NC(=O)c1cccnc1OC1CC2(C1)CC(N1C(=O)CN(Cc3ccccc3)C1=O)C2` (stereo not shown) [Example 10, 2-{[6-(3-benzyl-2,5-dioxoimidazol-idin-1-yl)spiro-[3.3]heptan-2-yl]-oxy}pyridine-3-carboxamide], the IC50 came out at 224 nM. The IC50 values of the last two compounds are within 1.5-fold of each other.
The figure for `NC(=O)c1cccnc1O[C@H]1C[C@]2(C1)C[C@H](N1C(=O)CN(CCc3ccccc3)C1=O)C2` (stereo partly shown) [Example 11] is 225 nM; for `CC(C)CN1CC(=O)N([C@H]2C[C@@]3(C[C@H](Oc4ncccc4C(N)=O)C3)C2)C1=O` (stereo partly shown) [Example 13, 2-{[(αR)-6-[3-(2-methylpropyl)-2,5-dioxoimidazol-idin-1-yl]spiro-[3.3]heptan-2-yl]-oxy}pyridine-3-carboxamide] it is 515 nM; for `C#CCC1NC(=O)N([C@H]2C[C@@]3(C[C@H](Oc4ncccc4C(N)=O)C3)C2)C1=O` (stereo partly shown) [Example 14, 2-{[(αR)-6-[2,5-dioxo-4-(prop-2-yn-1-yl)imidazol-idin-1-yl]spiro-[3.3]heptan-2-yl]oxy}pyridine-3-carboxamide] it is 562 nM.
For `CC(C)(C)OC(=O)NCCCC1NC(=O)N([C@H]2C[C@@]3(C[C@H](Oc4ncccc4C(N)=O)C3)C2)C1=O` (stereo partly shown) [Example 15, tert-butyl N-(3-{2,5-dioxo-1-[(αR)-6-[(3-carbamoylpyridin-2-yl)oxy]spiro-[3.3]heptan-2-yl]imidazolidin-4-yl}propyl)-carbamate] the value was 744 nM; for `NC(=O)c1cccnc1O[C@H]1C[C@]2(C1)C[C@H](N1C(=O)NC3(CCC3)C1=O)C2` (stereo partly shown) [Example 16, 2-{[(αR)-6-{6,8-dioxo-5,7-diaza-spiro[3.4]octan-7-yl}spiro[3.3]-heptan-2-yl]oxy}-pyridine-3-carbox-amide], 902 nM.
`NC(=O)c1cccnc1O[C@H]1C[C@]2(C1)C[C@H](N1C(=O)C3CCCCN3C1=O)C2` (stereo partly shown) [Example 17, 2-{[(αR)-6-{1,3-dioxo-hexahydro-1H-piperidino[1,2-c]imidazolidin-2-yl}spiro[3.3]heptan-2-yl]oxy}pyridine-3-carboxamide] returned an IC50 of 1340 nM.
For `NC(=O)c1cccnc1O[C@H]1C[C@]2(C1)C[C@H](N1C(=O)NC(CCO)C1=O)C2` (stereo partly shown) [Example 18, 2-{[(αR)-6-[2,5-dioxo-4-(2-hydroxyethyl)-imidazolidin-1-yl]spiro[3.3]-heptan-2-yl)oxy}-pyridine-3-carboxamide] the value was 1500 nM; for `Cn1cnc(CC2NC(=O)N([C@H]3C[C@@]4(C[C@H](Oc5ncccc5C(N)=O)C4)C3)C2=O)c1` (stereo partly shown) [Example 19, 2-{[(αR)-6-[2,5-dioxo-4-(1-methyl-4-imidazylmethyl)-imidazolidin-1-yl]spiro[3.3]heptan-2-yl]oxy}pyridine-3-carboxamide], 1630 nM; for `NC(=O)c1cccnc1O[C@H]1C[C@]2(C1)C[C@H](N1C(=O)NC(Cc3c[nH]cn3)C1=O)C2` (stereo partly shown) [Example 22], 2950 nM.
For `NC(=O)c1cccnc1O[C@H]1C[C@]2(C1)C[C@H](N1C(=O)C3CCCN3C1=O)C2` (stereo partly shown) [Example 23, 2-{[(αR)-6-{1,3-dioxo-hexahydro-1H-pyrrolo[1,2-c]imidazolidin-2-yl}spiro[3.3]-heptan-2-yl]oxy}-pyridine-3-carbox-amide] the value was 2020 nM; for `[H][C@]1(Oc2ncccc2C(N)=O)C[C@]2(C[C@@H](N3C(=O)N[C@@H](Cc4ccccc4)C3=O)C2)C1` (stereo partly shown) [Example 24], 197 nM.
For `CC(C)(C)C[C@@H]1NC(=O)N([C@H]2C[C@@]3(C[C@H](Oc4ncccc4C(N)=O)C3)C2)C1=O` (stereo partly drawn) [Example 25, 2-{[(αR)-6-[(4S)-4-(2,2-dimethyl-propyl)-2,5-dioxo-imidazolidin-1-yl]-spiro[3.3]heptan-2-yl]oxy}pyridine-3-carboxamide] the value was 10 nM; for `NC(=O)c1cccnc1O[C@H]1C[C@]2(C1)C[C@H](N1C(=O)N[C@@H](CC3CC3)C1=O)C2` (stereo partly drawn) [Example 26, 2-{[(αR)-6-[(4S)-4-(cyclopropyl-methyl)-2,5-dioxo-imidazolidin-1-yl]-spiro[3.3]heptan-2-yl]oxy}pyridine-3-carboxamide], 38 nM.
